# Article PMC10851555, “Safinamide, an inhibitor of monoamine oxidase, modulates the magnitude, gating, and hysteresis of sodium ion current” (BMC Pharmacology & Toxicology, 2024)
# Read-outs that look alike come from different tables or passages of the source.
# Experiments:
# [1] = system: voltage-gated sodium ion (NaV) channels in pituitary GH3 cells; assay: Whole-cell patch-clamp of INa induced by a 30-ms depolarizing pulse (−100 to −10 mV) in GH3 cells; format: cell-based, rat; conditions: for amplitude of INa(L) / amplitude of INa(T): 1 min after addition; for amplitude of INa(L): control 18 ± 3 pA; for amplitude of INa(T): control 512 ± 23 pA; for EC50: GH3 cells, modified Hill equation
# [2] = system: single NaV channels in GH3 cells; assay: Cell-attached single-channel NaV current recordings in GH3 cells; format: cell-based, rat; conditions: n = 7
# Method: The composition of the external or bath solution [4-(2-hydroxyethyl)-1-piperazineethanesulfonic acid (HEPES)-buffered normal Tyrode’s solution] was as follows: 136.5 mM NaCl, 1.8 mM CaCl2, 5.4 mM KCl, 0.53 mM MgCl2, 5.5 mM glucose, and 5.5 mM HEPES–NaOH (pH 7.4). To measure K^+ currents (data not shown), we filled a patch pipette with an internal solution comprising 140 mM KCl, 1 mM MgCl2, 3 mM adenosine 5′-triphosphate disodium salt, 0.1 mM guanosine 5′-triphosphate disodium salt, 0.1 mM ethylene glycol tetraacetic acid, and 5 mM HEPES–KOH buffer (pH 7.2). To record the whole-cell INa, the K^+ in the internal solution was substituted with Cs^+, and the pH of the solution was adjusted to 7.2 by adding cesium hydroxide. In the single-channel experiments performed to record NaV currents, the pipette was filled with a Na^+-rich solution containing 136 mM NaCl, 0.53 mM MgCl2, 5.5 mM glucose, and 5.5 mM HEPES–NaOH (pH 7.2). The bath medium was a K^+-rich solution comprising 130 mM KCl, 10 mM NaCl, 3 mM MgCl2, 6 mM glucose, and 10 mM HEPES-KOH (pH 7.4). The solutions and culture media were generally filtered on the day of use by using sterile Acrodisc Syringe Filters containing a 0.2-μm Supor Membrane (Bio-Check; New Taipei City, Taiwan).
# Single-channel NaV currents induced by depolarizing pulses ranging from −100 to −10 mV were measured and subsequently analyzed using pCLAMP 10.7. The opening events of the channels were generally evaluated through multi-Gaussian adjustments of the distribution of amplitude across channels. Functional independence between channels was determined by comparing the observed stationary probabilities with the values calculated based on the binomial law. For dwell-time analyses, only a single channel was used in the patch-clamp experiment.
# To elucidate the mechanisms underlying the effects of SAF on the magnitude of INa, we investigated the actions of SAF and SAF plus MGB on single-channel NaV currents. This experiment was performed using the cell-attached configuration of the voltage-clamp test. Test cells were placed in K^+-rich solution, and the recording pipette was filled with Na^+-rich solution. SAF (10 μM) increased channel activity and decelerated current inactivation when the cells were exposed to depolarization stimuli ascending from –100 to –10 mV (rate of 0.1 Hz; Fig. 9A). Furthermore, the addition of MGB (10 μM) in the presence of 10 μM SAF reduced the probability of channel opening. […] Moreover, with the presence of 10 μM SAF, the mean open time of NaV channels was prolonged to […] (n = 7, P < 0.05) msec from a control value of 2.3 ± 0.3 msec (n = 7). […] Consistent with these findings, the mean open time of the NaV channel in the presence of 10 μM SAF (5.9 ± 1.1 ms; n = 7; P < 0.05) was longer than that in the control period (2.3 ± 0.3 ms, n = 7); the subsequent further addition of 10 μM MGB decreased the mean open time to 3.7 ± 0.7 ms (n = 7, P < 0.05) (Fig. 9B). […] MGB added during SAF exposure reversed the SAF-induced increase in NaV channel activity.
smiles,measurement,setting,value
"C[C@H](NCc1ccc(OCc2cccc(F)c2)cc1)C(N)=O [SAF, (S)-2-((4-((3-fluorobenzyl)oxy)benzyl)amino)propanamide]",amplitude of INa(L),"[1]; 10 μM SAF, n = 8",54 ± 9 pA
same,amplitude of INa(T),"[1]; 10 μM SAF, n = 8",1387 ± 131 pA
same,time constant of the fast component of INa(T) inactivation,[1]; 30 μM SAF,no evident change
same,amplitude of INa(L),"[1]; 30 μM SAF, n = 8",106 ± 17 pA
same,amplitude of INa(T),"[1]; 30 μM SAF, n = 8",1991 ± 153 pA
same,"time constant τinact(S), slow component of INa(T) inactivation","[1]; 30 μM SAF, control 5.1 ± 0.7 ms, n = 8",10.2 ± 1.1 ms
same,maximal conductance of INa,[1]; 10 mM SAF (so in the source),increased
same,sloping factor of the steady-state inactivation curve,[1]; 10 mM SAF (so in the source),no change
same,shift of steady-state inactivation curve of INa to the rightward direction,"[1]; 10 mM SAF (so in the source), two-step voltage-clamp protocol, n = 7",approximately 14 mV
same,half-maximal activation voltage of INa(T) (G–V relationship),[1]; 3 or 10 μM SAF,shifted to more negative potentials
same,EC50,"[1]; current at beginning of 30-ms pulse −100 to −10 mV, read-out: EC50 for stimulation of transient INa [INa(T)]",27.1 µM
same,EC50,"[1]; current at end of 30-ms pulse −100 to −10 mV, read-out: EC50 for stimulation of late INa [INa(L)]",4.8 µM
same,amplitude of INa(L) after the removal of SAF,"[1]; washout, n = 8",20 ± 3 pA
same,amplitude of INa(T) after the removal of SAF,"[1]; washout, n = 8",523 ± 24 pA
same,channel activity (open-state probability) of NaV channels,"[2]; 10 μM SAF, control 0.027 ± 0.007",0.091 ± 0.006
same,mean open time of the NaV channel,"[2]; 10 μM SAF, control 2.3 ± 0.3 ms, second statement (Fig. 9B)",5.9 ± 1.1 ms
same,mean open time of NaV channels,"[2]; 10 μM SAF, control 2.3 ± 0.3 msec, first statement",6.5 ± 0.7 ms
same,amplitude of the single-channel current,"[2]; SAF 10 μM, control 2.01 ± 0.35 pA",2.03 ± 0.37 pA
